Results published in ChEMBL document CHEMBL3045658, “Design, synthesis, antiviral activity, and SARs of 14-aminophenanthroindolizidines” (2012).

Columns and labels:
Assay type in all cases: functional
[1] = system: Tobacco mosaic virus; assay: In vivo antiviral activity against Tobacco mosaic virus (TMV) inoculated left side of Nicotiana. tabacum L. leaves assessed as inactivation effect at 100 ug/mL co-incubated with virus measured after 3 to 4 days
[2] = system: Tobacco mosaic virus; assay: Antiviral activity against Tobacco mosaic virus (TMV) inoculated in 5-6 growth stage leaf assessed as inhibition effect at 100 ug/mL at 25 degC after 72 hr by half-leaf method
[3] = system: Tobacco mosaic virus; assay: In vivo antiviral activity against Tobacco mosaic virus (TMV) inoculated left side of Nicotiana. tabacum L. leaves assessed as inactivation effect at 500 ug/mL co-incubated with virus measured after 3 to 4 days
[4] = system: Tobacco mosaic virus; assay: In vivo antiviral activity against Tobacco mosaic virus (TMV) inoculated right side of Nicotiana. tabacum L. leaves assessed as protection effect at 100 ug/mL preincubated 12 hr before viral challenge measured after 3 to 4 days
[5] = system: Tobacco mosaic virus; assay: In vivo antiviral activity against Tobacco mosaic virus (TMV) pre-inoculated Nicotiana. tabacum L. leaves assessed as curative effect at 100 ug/mL measured after 3 to 4 days
[6] = system: Tobacco mosaic virus; assay: In vivo antiviral activity against Tobacco mosaic virus (TMV) inoculated right side of Nicotiana. tabacum L. leaves assessed as protection effect at 500 ug/mL preincubated 12 hr before viral challenge measured after 3 to 4 days
[7] = system: Tobacco mosaic virus; assay: Antiviral activity against Tobacco mosaic virus (TMV) inoculated in 5-6 growth stage leaf assessed as inhibition effect at 500 ug/mL at 25 degC after 72 hr by half-leaf method
[8] = system: Tobacco mosaic virus; assay: In vivo antiviral activity against Tobacco mosaic virus (TMV) pre-inoculated Nicotiana. tabacum L. leaves assessed as curative effect at 500 ug/mL measured after 3 to 4 days
[9] = system: Tobacco mosaic virus; assay: Antiviral activity against Tobacco mosaic virus (TMV) assessed as inhibition effect at 1 ug/mL
[10] = system: Tobacco mosaic virus; assay: Antiviral activity against Tobacco mosaic virus (TMV) assessed as inhibition effect at 500 ug/mL

| Structure (SMILES) | inhibition in vivo at 100 µg/mL [1] [%] | inhibition at 100 µg/mL [2] [%] | inhibition in vivo at 500 µg/mL [3] [%] | inhibition in vivo at 100 µg/mL [4] [%] | inhibition in vivo at 100 µg/mL [5] [%] | inhibition in vivo at 500 µg/mL [6] [%] | inhibition at 500 µg/mL [7] [%] | inhibition in vivo at 500 µg/mL [8] [%] | inhibition at 1 µg/mL [9] [%] | inhibition at 500 µg/mL [10] [%] |
| --- | --- | --- | --- | --- | --- | --- | --- | --- | --- | --- |
| COc1cc2c3c(c4cc(OC)c(OC)cc4c2cc1OC)[C@H](NC(C)=O)[C@@H]1CCCN1C3 | 31.1 | 21.1 | 46.4 | 29.3 | 25.3 | 41.5 | 34.7 | 37.4 |  |  |
| COc1cc2c3c(c4cc(OC)c(OC)cc4c2cc1OC)CN1CCCC1C3 (racemic) [(+/-)-TYLOPHORINE] | 33.3 | 27.6 | 46.5 | 31.5 | 30.7 | 56.6 | 51.8 | 52 |  |  |
| CCCCN[C@H]1c2c(c3cc(OC)c(OC)cc3c3cc(OC)ccc23)CN2CCC[C@H]12 | 15.2 | 19.9 | 42.3 | 20 | 16.7 | 54.2 | 51.4 | 50.2 |  |  |
| CCCCN[C@@H]1c2c(c3cc(OC)c(OC)cc3c3cc(OC)ccc23)CN2CCC[C@H]12 | 23.7 | 24.3 | 53.5 | 27.4 | 20.5 | 57.6 | 47.6 | 58.2 |  |  |
| COc1ccc2c3c(c4cc(OC)c(OC)cc4c2c1)[C@H](NC(=O)C(C)(C)C)[C@@H]1CCCN1C3 | 23.6 | 28.7 | 37.2 | 24.7 | 31.4 | 52.6 | 48.3 | 45.6 |  |  |
| CCCCN[C@H]1c2c(c3cc(OC)c(OC)cc3c3cc(OC)ccc23)CN2CCC[C@@H]12 | 30 | 28.4 | 58.9 | 34.9 | 25.9 | 65.5 | 62.3 | 60.2 |  |  |
| COc1ccc2c3c(c4cc(OC)c(OC)cc4c2c1)CN1CCC[C@H]1[C@H]3NC(C)=O | 16.7 | 7.4 | 38.1 | 15.3 | 0 | 28.6 | 23.5 | 25.2 |  |  |
| COc1ccc2c3c(c4cc(OC)c(OC)cc4c2c1)C[C@H]1CCCN1C3 [(-)-ANTOFINE] |  |  |  |  |  |  |  |  | 63 |  |
| COc1cc2c3c(c4ccc(O)cc4c2cc1OC)CN1CCC[C@@H]1C3 |  |  |  |  |  |  |  |  | 70 |  |
| COc1cc2c3c(c4cc(OC)c(OC)cc4c2cc1OC)[C@H](NC(=O)C(C)(C)C)[C@@H]1CCCN1C3 | 16.9 | 23.1 | 28.5 | 22 | 26.3 | 38.9 | 42.4 | 38.5 |  |  |
| COc1cc2c3c(c4cc(OC)c(OC)cc4c2cc1OC)[C@H](N)[C@@H]1CCCN1C3 | 11.2 | 0 | 17.6 | 7.3 | 0 | 18.4 | 12.9 | 15.5 |  |  |
| CCCCN[C@@H]1c2c(c3cc(OC)c(OC)cc3c3cc(OC)ccc23)CN2CCC[C@@H]12 | 32.6 | 41.2 | 64.2 | 36.8 | 30.4 | 69.5 | 72.3 | 66.6 |  |  |
| CNCC(=O)N[C@@H](CO)C(=O)N[C@H]1[C@H](O)[C@@H](O)[C@H](n2ccc(N)nc2=O)O[C@@H]1C(N)=O [NINGNANMYCIN] | 37.7 | 23.9 | 68.5 | 25.2 | 18.9 | 66.6 | 70.2 | 56 |  |  |
| CC(=O)N1CN(C(C)=O)C(=O)NC1=O |  |  |  |  |  |  |  |  |  | 50 |
| COc1ccc2c3c(c4cc(OC)c(OC)cc4c2c1)CN1CCC[C@H]1[C@H]3NC(=O)C(C)(C)C | 15.4 | 30 | 31.9 | 23.6 | 27.7 | 43.1 | 49.1 | 45 |  |  |
| COc1ccc2c3c(c4cc(OC)c(OC)cc4c2c1)[C@H](N)[C@@H]1CCCN1C3 | 32.1 | 32.5 | 41.9 | 30.1 | 29.6 | 44.4 | 48.2 | 42.3 |  |  |
| CCCCN[C@H]1c2c(c3cc(OC)c(OC)cc3c3cc(OC)ccc23)CN2C(=O)CC[C@H]12 | 19.8 | 20.4 | 43.3 | 17.6 | 14.3 | 46.8 | 44.1 | 36.2 |  |  |
| NC(=O)c1ncn([C@@H]2O[C@H](CO)[C@@H](O)[C@H]2O)n1 [RIBAVIRIN] | 9.8 | 19.6 | 33.8 | 7.5 | 8.2 | 38.9 | 41 | 36.7 |  |  |
| CCCCN[C@@H]1c2c(c3cc(OC)c(OC)cc3c3cc(OC)ccc23)CN2C(=O)CC[C@@H]12 | 27.6 | 20 | 50 | 28.6 | 24.3 | 54.8 | 45.7 | 52.5 |  |  |
| CCCCN[C@H]1c2c(c3cc(OC)c(OC)cc3c3cc(OC)ccc23)CN2C(=O)CC[C@@H]12 | 25.6 | 30 | 47.2 | 26.2 | 20.3 | 50.3 | 52.5 | 47.5 |  |  |
| COc1ccc2c3c(c4cc(OC)c(OC)cc4c2c1)[C@H](NC(C)=O)[C@@H]1CCCN1C3 | 40.4 | 55 | 72.2 | 55.3 | 50.8 | 72.7 | 75.1 | 69.6 |  |  |
| CCCCN[C@@H]1c2c(c3cc(OC)c(OC)cc3c3cc(OC)ccc23)CN2C(=O)CC[C@H]12 | 25.4 | 17.5 | 49.4 | 20.5 | 23.6 | 48.2 | 38.2 | 41.7 |  |  |
| COc1ccc2c3c(c4cc(OC)c(OC)cc4c2c1)CN1CCC[C@H]1[C@H]3N | 32.8 | 45 | 70.3 | 38.9 | 48.2 | 71.6 | 72.4 | 68 |  |  |
| O=C1NCNC(=O)N1 |  |  |  |  |  |  |  |  |  | 50 |
